Consider 8 compounds from ChEMBL document CHEMBL1139939, “Synthesis and biological activity of naphthalene analogues of phenstatins: naphthylphenstatins” (Bioorg Med Chem Lett, 2007).

The target of assay [1] is T1, Tubulin (Homo sapiens) (UniProt P68371+Q9H4B7+P0DPH7+P68366+Q13509+Q71U36+P04350+Q3ZCM7+P07437+P68363+Q9BQE3+Q6PEY2+Q13885+Q9BVA1+Q9BUF5). Kind of assay: Inhibition of tubulin polymerization at 20 uM. It is filed as protein-complex assay.
For another assay, the system named is HeLa. Kind of assay: Cytotoxicity against human HeLa cells. Format: functional, cell-based.
The test system of a further assay is A549. Kind of assay: Cytotoxicity against human A549 cells. It is filed as functional, cell-based.
The next assay relates to HT-29. The assay is described as follows: Cytotoxicity against human HT29 cells. Format: functional, cell-based.
Assay [2] has as its target T1, Tubulin (Homo sapiens). The assay is described as follows: Inhibition of tubulin polymerization at 40 uM. It is filed as protein-complex assay.

One may read the inhibition as the relative decrease from the control value, in per cent. A higher inhibition goes with strong suppression. What is called IC50 is the point on the concentration scale where inhibition reaches its midpoint. High values mean weaker potency, low ones greater potency. `COc1ccc(C(OC(C)=O)c2ccc3ccccc3c2)c(OC)c1OC` (centres undefined) yielded an inhibition on Tubulin (Homo sapiens) [1] of 26%. For the same compound, the concentration for half-maximal inhibition (IC50) with HeLa is 2700 nM; in the assay on A549, above 10000 nM; in the assay with HT-29, above 10000 nM.
For `COc1ccc(/C=C\c2cc(OC)c(OC)c(OC)c2)cc1O` [COMBRETASTATIN A4], the concentration for half-maximal inhibition (IC50) with HT-29 was 3 nM.
Compound `COc1ccc(C(=O)c2ccc3ccccc3c2)c(OC)c1OC` had an inhibition on Tubulin (Homo sapiens) [1] of 4%. For the same compound, the figures for the concentration for half-maximal inhibition (IC50) in the assay on HeLa, in the assay with A549 and in the assay with HT-29 were 1700 nM, above 10000 nM and above 10000 nM, respectively.
For the compound `COc1cc(C(OC(C)=O)c2ccc3ccccc3c2)cc(OC)c1OC` (centres undefined), the inhibition at Tubulin (Homo sapiens) [1] worked out at 5%. Further, the IC50 is 3800 nM with HeLa, above 10000 nM with A549 and above 10000 nM in the assay with HT-29.
Compound `COc1cc(C(=O)c2ccc3ccccc3c2)cc(OC)c1OC` returned an inhibition against Tubulin (Homo sapiens) [2] of 100%. Further, the figures for the concentration for half-maximal inhibition (IC50) in the assay with HeLa and in the assay with A549 were 42 nM and 250 nM, respectively.
`COc1cc(C(O)c2ccc3ccccc3c2)cc(OC)c1OC` (centres undefined) came in with an inhibition on Tubulin (Homo sapiens) [2] of 0%.
In the case of `COc1ccc(C(O)c2ccc3ccccc3c2)c(OC)c1OC` (centres undefined), the inhibition at Tubulin (Homo sapiens) [1] was 0%. Further, the concentration for half-maximal inhibition (IC50) in the assay on HeLa, in the assay on A549 and with HT-29 was above 10000 nM each time.
Turning to `COc1cc(/C=C\c2ccc3ccccc3c2)cc(OC)c1OC` [NAPHTHYLCOMBRETASTATIN], the IC50 in the assay with HeLa, with A549 and with HT-29 was 20 nM in each case.
